Values belong to the compound of their own block, whether it stands above or below them. *1 amine or outer side, *2 acyl side, *3 side chain or, on linkers, in order; H or OH if unused. Where a SMILES comes first, the peptide text is derived from it. γGlu = O=C(O)[CH](CCC(=O)[*:2])N[*:1]
What was measured:
human CaSR F42S mutant = target: T1, human CaSR F42S mutant (Homo sapiens, UniProt P41180, F42S); assay: Calcium mobilization assay, CaSR F42S mutant; type: cell-based; conditions: for Response in calcium mobilization assay: in words
T1 construct: expressed in transfected cells; host or cells: PEAKrapid cells (ATCC), pcDNA 3.1, transient transfection
T1 sequence (P41180 20-1078 F42S): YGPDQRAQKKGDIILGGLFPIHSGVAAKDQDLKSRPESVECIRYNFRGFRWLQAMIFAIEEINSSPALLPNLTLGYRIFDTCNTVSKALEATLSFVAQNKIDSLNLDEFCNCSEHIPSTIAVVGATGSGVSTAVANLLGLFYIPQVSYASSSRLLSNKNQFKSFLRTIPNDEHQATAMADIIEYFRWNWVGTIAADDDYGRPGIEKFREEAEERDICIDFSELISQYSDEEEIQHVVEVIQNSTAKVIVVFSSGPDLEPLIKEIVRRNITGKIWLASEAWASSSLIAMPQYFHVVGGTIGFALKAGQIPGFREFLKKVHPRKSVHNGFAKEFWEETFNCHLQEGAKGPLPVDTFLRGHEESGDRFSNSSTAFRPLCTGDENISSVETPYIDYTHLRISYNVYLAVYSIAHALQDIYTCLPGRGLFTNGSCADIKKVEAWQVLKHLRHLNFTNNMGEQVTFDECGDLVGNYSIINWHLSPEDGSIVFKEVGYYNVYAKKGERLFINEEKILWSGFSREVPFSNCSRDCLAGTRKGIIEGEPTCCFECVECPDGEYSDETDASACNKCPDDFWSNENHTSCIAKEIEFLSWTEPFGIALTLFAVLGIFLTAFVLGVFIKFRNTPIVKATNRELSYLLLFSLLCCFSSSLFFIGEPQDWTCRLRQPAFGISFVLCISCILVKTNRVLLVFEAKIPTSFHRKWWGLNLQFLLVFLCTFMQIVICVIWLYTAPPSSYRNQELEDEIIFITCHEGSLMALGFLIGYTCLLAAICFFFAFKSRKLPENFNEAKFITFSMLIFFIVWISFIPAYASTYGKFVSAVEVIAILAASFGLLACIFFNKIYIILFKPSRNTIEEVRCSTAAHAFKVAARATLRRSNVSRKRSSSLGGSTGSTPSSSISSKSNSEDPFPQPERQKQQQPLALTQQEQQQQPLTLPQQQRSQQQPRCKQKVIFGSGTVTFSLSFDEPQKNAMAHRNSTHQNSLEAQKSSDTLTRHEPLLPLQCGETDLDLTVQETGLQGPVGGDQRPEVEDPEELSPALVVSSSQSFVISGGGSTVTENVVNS
Experimental: The CaSR receptor responsiveness was assessed by using PEAK^rapid cells (ATCC, Manassas, VA, USA) transiently transfected with the receptor DNA by the method reported by Kitajima et al.[6]. Briefly, human CaSR or its mutant cDNA with a signal sequence (MAFYSCCWVLLALTWHTSA) followed by FLAG-tag (DYKDDDDK) were inserted into pcDNA 3.1 expression vectors in Opti-MEM I medium (Thermo Fisher Scientific), mixed with FuGENE 6 (Roche), and poured onto PEAK^rapid cells grown at a submaximal concentration. After culturing for 24 h in 96-well plates, the cells were incubated with 5 µM Calcium-5 solution (Calcium-5 assay kit, Molecular Devices) for 45–60 min, and measurements were performed using a plate reader (FDSS/µCELL, Hamamatsu Photonics, Shizuoka, Japan) and its associated software. The activation of CaSR expressed in cells increases the intracellular Ca^2+ concentration, which is measured using a Ca^2+-sensitive dye. The binding of Ca^2+ to the Ca^2+-sensitive dye increases dye fluorescence, with excitation at 485 nm and emission at 525 nm. Test compounds were dissolved and administered in the assay buffer (146 mM NaCl, 1 mM MgSO4, 20 mM HEPES, 1 mM CaCl2, 2.5 mM probenecid, and 1.39 mM glucose, pH 7.4). Transiently transfected cells were challenged with compounds and compared with the vehicle alone and/or mock-transfected cells. The concentration dependence of the fluorescence intensity (influx of Ca^2+) was analyzed using the plate reader at 1 s intervals for 180 s. For the dose–response curve calculations, peak fluorescence responses after the addition of compounds were corrected for, normalized to the background fluorescence (ΔF/F = –F − F0)/F0), and baseline noise was subtracted. Dose–response curves were calculated by non-linear regression using GraphPad PRISM 8.0.

CaSR = tested on: CaSR; design: method as in PMID 19892707, PMID 27477658; conditions: screening of dipeptides and tripeptides, previous work; cited from earlier work

Response in calcium mobilization assay (human CaSR F42S mutant): no response
SMILES: N[C@@H](Cc1ccc(O)cc1)C(=O)O [L-Tyr, L-tyrosine]

Response in calcium mobilization assay (human CaSR F42S mutant): no response
SMILES: CC(C)[C@H](NC(=O)CC[C@H](N)C(=O)O)C(=O)O [γ-EV, γ-glutamyl-valine]

SMILES: CC(C)C(NC(=O)CCC(N)C(=O)O)C(=O)NCC(=O)O (stereo not drawn) [γ-EVG, γ-glutamyl-valyl-glycine] (γGlu-Val-Gly-OH; configuration not given here)
CaSR activation potency (CaSR): most potent activity among those tested

Emax (% of wild-type values) (human CaSR F42S mutant): 87.0 % of WT
EC50 (human CaSR F42S mutant; mean ± s.e.m., n = 3): 6.6 ± 0.3 mM
SMILES: [Ca+2].[Cl-].[Cl-] [CaCl2]
